Experimental findings from patent US20070249599A1, “Novel Chemical Compounds” (priority 2004, published 2007) are described below.

What is called IC50 is the concentration at which inhibition is half-maximal.

In the assay the target is T1, hYAK3 (Homo sapiens, UniProt O43781).
T1 construct: GST (N); His6 (C); made in house; host or cells: baculovirus expression system in Sf9 cells
T1 sequence (O43781 124-526): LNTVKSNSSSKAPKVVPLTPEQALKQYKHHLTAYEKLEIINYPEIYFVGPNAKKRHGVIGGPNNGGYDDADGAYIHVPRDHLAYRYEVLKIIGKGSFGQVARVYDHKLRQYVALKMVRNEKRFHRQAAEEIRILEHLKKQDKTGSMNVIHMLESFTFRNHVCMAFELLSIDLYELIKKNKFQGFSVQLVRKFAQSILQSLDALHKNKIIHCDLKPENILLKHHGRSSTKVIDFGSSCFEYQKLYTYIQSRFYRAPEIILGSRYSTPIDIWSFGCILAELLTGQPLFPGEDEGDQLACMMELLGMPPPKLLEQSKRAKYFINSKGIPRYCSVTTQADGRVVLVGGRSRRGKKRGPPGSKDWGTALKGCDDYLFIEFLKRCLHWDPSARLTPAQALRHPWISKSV
As to the kind of experiment: YAK3 Scintillation Proximity Assay using Ser164 of myelin basic protein as the phosphoacceptor (kinase assay of purified hYAK3). The class given is biochemical. To be noted: purified GST-hYak3-His6 (aa 124-526), 4 nM; 0.001 mM ATP; 4 μM Ser164 peptide; 2 hours at room temperature; pIC50 = −log10(IC50). The method, then:
Substrate phosphorylation assays were carried out as follows:
YAK3 Scintillation Proximity Assays Using Ser164 of Myelin Basic Protein as the Phosphoacceptor
The source of Ser164 substrate peptide The biotinylated Ser164, S164A peptide(Biotinyl-LGGRDSRAGS*PMARR-OH), sequence derived from the C-terminus of bovine myelin basic protein (MBP) with Ser162 substituted as Ala 162, was purchased from California Peptide Research Inc. (Napa, Calif.), and its purity was determined by HPLC. Phosphorylation occurs at position 164 (marked S* above). The calculated molecular mass of the peptide was 2166 dalton. Solid sample was dissolved at 10 mM in DMSO, aliquoted, and stored at −20° C. until use.
hYAK3: Glutathione-S-Transferase (GST)-hYak3-His6 containing amino acid residues 124-526 of human YAK3 (aa 124-526 of SEQ ID NO 2. in U.S. Pat. No. 6,323,318) was purified from baculovirus expression system in Sf9 cells using Glutathione Sepharose 4B column chromatography followed by Ni-NTA-Agarose column chromatography. Purity greater than 65% typically was achieved. Samples, in 50 mM Tris, 150 mM NaCl, 10% glycerol, 0.1% Triton, 250 mM imidazole, 10 mM β-mercapto ethanol, pH 8.0. were stored at −80° C. until use.
Kinase assay of purified hYAK3: Assays were performed in 96 well (Costar, Catalog No. 3789) or 384 well plates (Costar, Catalog No. 3705). Reaction (in 20, 25, or 40 μl volume) mix contained in final concentrations 25 mM Hepes buffer, pH 7.4; 10 mM MgCl2; 10 mM β-mercapto ethanol; 0.0025% Tween-20; 0.001 mM ATP, 0.1 μCi of [γ-^33P]ATP; purified hYAK3 (7-14 ng/assay; 4 nM final); and 4 μM Ser164 peptide. Compounds, titrated in DMSO, were evaluated at concentrations ranging from 50 μM to 0.5 nM. […] Reactions were incubated for 2 hours at room temperature and were stopped by a 75 ul addition of […] Streptavidin Scintillation Proximity beads (Amersham Pharmacia Biotech, Catalog No. RPNQ 0007) in PBS, pH 7.4, 10 mM EDTA, 0.1% Triton X-100, 1 mM ATP. Under the assay conditions defined above, the Km(apparent) for ATP was determined to be 7.2+/−2.4 μM.

With `CN(C)CCn1nnc2ccc(/C=C3\SC(Nc4c(Cl)cccc4Cl)=NC3=O)cc21` [Example 58, (5Z)-2-[(2,6-dichlorophenyl)amino]-5-({1-[2-(dimethylamino)ethyl]-1H-1,2,3-benzotriazol-6-yl}methylidene)-1,3-thiazol-4(5H)-one], the concentration for half-maximal inhibition (IC50) was 10.2 to 100 nM.

For the compound `Cc1nc2ccc(C=C3SC(=Nc4c(Cl)cccc4Cl)NC3=O)cc2o1` [Example 59, 2-(2,6-Dichloro-phenylimino)-5-(2-methyl-benzooxazol-6-yl-methylene)-thiazolidin-4-one], the IC50 was 1.02 to 10 nM.

With `Cn1c(C(C)(C)C)nc2ccc(/C=C3\SC(Nc4ccccc4Cl)=NC3=O)cc21` [Example 53, (5Z)-2-[(2-Chlorophenyl)amino]-5-{[2-(1,1-dimethylethyl)-1-methyl-1H-benzimidazol-6-yl]methylidene}-1,3-thiazol-4(5H)-one], the IC50 is 102 to 1000 nM.
